Results taken from EP4578855A1, “PROLYL HYDROXYLASE INHIBITOR AND USE THEREOF” (Suzhong Pharmaceutical Group Co., Ltd., priority 2022, dated 2024).

Test: Subacute toxicity test, 14 consecutive days
Assay type: in vivo
Conditions: SD rats, 10 mg/kg once a day for 14 consecutive days, in words
Excerpt: A proper amount of the compound in Embodiment 13 and a proper amount of the compound in Embodiment 14 were weighed by a balance and respectively placed into proper glass bottles, then DMSO, Solutol HS-15 and 0.9% physiological saline (in a ratio of v: v: v = 5%: 10%: 85%) were sequentially added into the glass bottles, and vortexed and stirred, and a drug dissolution condition was continuously concerned in the stirring process until the compounds were completely dissolved/suspended. Finally, drug solutions of the compound in Embodiment 13 and the compound in Embodiment 14 with a concentration of 0.67 mg/mL were prepared for current use.
An animal room was well ventilated, equipped with an air-conditioner, kept at a temperature of 20°C and 25°C and a humidity of 40% to 70%, and in light and dark conditions for 12 hours respectively, and the animals could eat and drink freely. SD rats with good physical signs could be selected for this experiment after being adaptively fed for at least 3 days before administration. Table 23 Source and number of experimental animals
Any operation on the experimental animals in this experiment met the requirements of the "Regulations for the Administration of Affairs Concerning Experimental Animals" issued by the Ministry of Science and Technology of the People's Republic of China. In this experiment, a solvent control group, an administration group of compound in Embodiment 13 and an administration group of compound in Embodiment 14 were set up. Administration dosages of the administration group of compound in Embodiment 13 and the administration group of compound in Embodiment 14 were (10 mg/kg) once a day for 14 consecutive days, while the same amount of blank solvent was given to the blank control group, and administration volumes were all 15 mL/kg. After each administration, symptoms and degrees of toxic reaction of the animals were observed. Recovery observation was carried out for 7 days after the last administration. […]
During the experiment, experimenters and veterinarians should observe physical signs and health conditions of the experimental animals continuously. Any abnormal manifestations of the animals, such as pain, depression and decreased activity should be recorded in original records of the experiment. […]
During the experiment, all animals were observed beside cages at least twice a day, and observed continuously for 2 hours after the drug administration. During the drug administration, if the animals had serious side effects or died, observation results should be recorded in a corresponding form. […]
The animals should be weighed before daily drug administration for 14 consecutive days, and the weights were recorded in a corresponding form. Food intakes of the experimental animals were detected during the experiment. […]

O=C(O)CNC(=O)c1c(O)cc(C2CCc3ccccc3C2)n2ncnc12 (single isomer, unassigned) [Compound in Embodiment 13, [(7-hydroxy-5-(1,2,3,4-tetrahydronaphthalene-2-yl)-[1,2,4]triazolo[1,5-a]pyridine-8-carbonyl)amino]acetic acid]
toxicities (compared with Enarodustat): lower than that of Enarodustat | gastrointestinal findings: no obvious gastrointestinal necrosis, and bleeding spots or flatulence in a black stomach part
